Measurements as given in US5610003A, “Two-equivalent magenta photographic couplers with activity-modifying ballasting groups” (Eastman Kodak Company, priority 1995, dated 1997).

What was measured:
[1] = Taft steric parameter Es of sterically hindering group; type: physicochemical; set-up: key: Taft steric parameter Es, referenced to H = 0 (more negative = bulkier)
Excerpt: Y is a monovalent organic group which sterically hinders leuco dye formation. The sterically hindering group is characterizedby a negative Es value greater than the absolute value of -1.5 and more preferably greater than the absolute value of -2.0. The Es value refers to the Taft steric parameter, referenced to H=O and defined as: […]
where k refers to the rate constant for the acid hydrolysis of esters of the type X--CH2 COOR and 1.24 is the hydrolysis rate of formate. A detailed description of this parameter is provided by S. H. Unger and C. Hansch, Prog. Phys. Org. Chem., 12, 91 (1976).

[2] = π value of R^4 group; type: physicochemical; set-up: key: π from partition coefficients of derivative (Px) vs parent (PH); conditions: substituent R^4
Experimental: R^4 is a monovalent organic group with a π value of at least 2.1. As used herein, the π value is determined by the equation: […]
where Px is the partition coefficient of a derivative and PH is the partition coefficient of the parent compound. A detailed description of the determination of the π value is provided by A. Leo, C. Hansch and D. Elkins, Chem. Rev., 71, 525 (1971).

Row | SMILES | Es Value for Sterically Hindering Group [1] | π Value for R^4 [2]
1 | CCCCCCC(Oc1ccc(C(C)(C)CC(C)(C)C)cc1C(C)(C)CC(C)(C)C)C(=O)NC1=NN(c2c(Cl)cc(Cl)cc2Cl)C(=O)C1n1cccn1 (stereo not drawn) [Example 1] | -2.6 | 3.2
2 | CCCCCCCCC(Oc1ccc(C(C)(C)CC(C)(C)C)cc1C(C)(C)CC(C)(C)C)C(=O)NC1=NN(c2c(Cl)cc(Cl)cc2Cl)C(=O)C1n1cccn1 (stereo not drawn) [Example 2] | -2.6 | 4.3
3 | CCCCCCCCCCCCC(Oc1ccc(C(C)(C)CC(C)(C)C)cc1C(C)(C)CC(C)(C)C)C(=O)NC1=NN(c2c(Cl)cc(Cl)cc2Cl)C(=O)C1n1cccn1 (stereo not drawn) [Example 3] | -2.6 | 6.5
4 | CCCCC(Oc1ccc(C(C)(C)CC)cc1C(C)(C)CC)C(=O)NC1=NN(c2c(Cl)cc(Cl)cc2Cl)C(=O)C1n1cccn1 (stereo not drawn) [Example 4] | -3.0 | 2.1
5 | CCCCCCC(Oc1ccc(C(C)(C)CC)cc1C(C)(C)CC)C(=O)NC1=NN(c2c(Cl)cc(Cl)cc2Cl)C(=O)C1n1cccn1 (stereo not drawn) [Example 5] | -3.0 | 3.2
6 | CCCCCCCCC(Oc1ccc(C(C)(C)CC)cc1C(C)(C)CC)C(=O)NC1=NN(c2c(Cl)cc(Cl)cc2Cl)C(=O)C1n1cccn1 (stereo not drawn) [Example 6] | -3.0 | 4.3
7 | CCCCCCCCCCCCC(Oc1ccc(C(C)(C)CC)cc1C(C)(C)CC)C(=O)NC1=NN(c2c(Cl)cc(Cl)cc2Cl)C(=O)C1n1cccn1 (stereo not drawn) [Example 7] | -3.0 | 6.5
8 | CCCCCCCCCCCCCCCCC(Oc1ccc(C(C)(C)CC)cc1C(C)(C)CC)C(=O)NC1=NN(c2c(Cl)cc(Cl)cc2Cl)C(=O)C1n1cccn1 (stereo not drawn) [Example 8] | -3.0 | 8.6
9 | CCCCCCC(Oc1cc2c(cc1C(C)(C)CC(C)(C)C)OC(C)(C)CC2(C)C)C(=O)NC1=NN(c2c(Cl)cc(Cl)cc2Cl)C(=O)C1n1cccn1 (stereo not drawn) [Example 9] | -2.6 | 4.3
10 | CCCCCCCCCCCCC(Oc1ccc(CCCCC)cc1CCCCC)C(=O)NC1=NN(c2c(Cl)cc(Cl)cc2Cl)C(=O)C1n1cccn1 (stereo not drawn) [Example 10] | -1.6 | 6.5
11 | CCCCCCCCCCCCC(Oc1cc(C(C)(C)C)cc(C(C)(C)C)c1)C(=O)NC1=NN(c2c(Cl)cc(Cl)cc2Cl)C(=O)C1n1cccn1 (stereo not drawn) [Example 11] | -2.8 | 6.5
12 | CCC(C)(C)c1ccc(Oc2ccc([N+](=O)[O-])cc2C(=O)NC2=NN(c3c(Cl)cc(Cl)cc3Cl)C(=O)C2n2cccn2)c(C(C)(C)CC)c1 (stereo not drawn) [Example 12] | -3.0 | 
13 | CCCCCCCCCCCC(=O)Nc1ccc(Oc2ccc(C(C)(C)CC)cc2C(C)(C)CC)c(C(=O)NC2=NN(c3c(Cl)cc(Cl)cc3Cl)C(=O)C2n2cccn2)c1 (stereo not drawn) [Example 13] | -3.0 | 
14 | CCCCCCCCCCC(Oc1ccc(S(=O)(=O)c2ccc(OCc3ccccc3)cc2)cc1)C(=O)Nc1ccc(Oc2ccc(C(C)(C)CC)cc2C(C)(C)CC)c(C(=O)NC2=NN(c3c(Cl)cc(Cl)cc3Cl)C(=O)C2n2cccn2)c1 (stereo not drawn) [Example 14] | -3.0 | 
15 | CCC(C)(C)c1ccc(OCC(=O)Nc2ccc(Oc3ccc(C(C)(C)CC)cc3C(C)(C)CC)c(C(=O)NC3=NN(c4c(Cl)cc(Cl)cc4Cl)C(=O)C3n3cccn3)c2)c(C(C)(C)CC)c1 (stereo not drawn) [Example 15] | -3.0 | 
16 | CCCCCCCCCCCCC(Oc1ccc(C)cc1C(C)(C)CC(C)(C)C)C(=O)NC1=NN(c2c(Cl)cc(Cl)cc2Cl)C(=O)C1n1cccn1 (stereo not drawn) [Example 16] | -2.6 | 6.5
17 | CCCCCCCCCCCCC(Oc1ccc(C(C)(C)CC(C)(C)C)cc1)C(=O)NC1=NN(c2c(Cl)cc(Cl)cc2Cl)C(=O)C1n1cccn1 (stereo not drawn) [Example 17] | -2.6 | 6.5
